Values after ≈ are worked out from the molar mass of the structure shown. Read-outs that look alike come from different tables or passages of the source.
Legend:
Assay type in all cases: cell-based
[1] = system: S. uberis ATCC 19436; assay: MIC by broth microdilution, S. uberis; settings: Streptococcus uberis, read-out: S. uberis ATCC 19436 MIC
How it was run: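 Streptococcus uberis ATCC 19436 was tested in Todd Hewitt Broth by broth microdilution in 96-well flat bottom plates, in biological triplicate. Overnight cells were diluted to OD600 of approximately 0.025, giving about 5×10^5 cfu/mL in the wells. Compounds were serially diluted two-fold to 200 μl, incubated 24 h at 37° C. and 200 rpm, and the MIC was taken from OD600.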

[2] = system: S. aureus ATCC 6538; assay: MIC by broth microdilution, S. aureus; settings: Staphylococcus aureus, read-out: S. aureus ATCC 6538 MIC
How it was run: (§1)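 Two-fold serial dilutions were tested in broth at ~5×10^5 cfu/mL: S. aureus in TSB or CAMHB, E. coli in LB or CAMHB, with 50 μM zinc sulphate added as required. After 24 h at 37° C, 200 rpm, MIC was the lowest concentration showing no growth by OD600.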

[3] = system: E. coli ATCC 10596; assay: MIC by broth microdilution, E. coli; settings: Escherichia coli, read-out: E. coli ATCC 10536 MIC
How it was run: as §1

[4] = ATCC 10536 / ATCC 10596, No Zinc
[5] = ATCC 10536 / ATCC 10596, Zinc (50 μM)

SMILES	MIC ([1]; ATCC19436, No Zinc)	MIC ([1]; ATCC19436, Zinc (50 μM))	MIC ([2]; ATCC6538, No Zinc)	MIC ([2]; ATCC6538, Zinc (50 μM))	MIC [3, 4]	MIC [3, 5]
NC(=O)N/N=C/c1ccc2cccc(NS(=O)(=O)c3ccc(C(F)(F)F)cc3)c2n1 [ZDR118, (E)-2-((8-((4-(Trifluoromethyl)phenyl)sulfonamido)quinolin-2-yl)methylene)hydrazine-1-carboxamide]	32 µg/mL (≈ 73.2 µM)	2 µg/mL (≈ 4.57 µM)	128 µg/mL (≈ 293 µM)	8 µg/mL (≈ 18.3 µM)	> 256 µg/mL	> 256 µg/mL
CO/N=C/c1ccc2cccc(NS(=O)(=O)c3ccc(C(F)(F)F)cc3)c2n1 [ZDR126, (E)-N-(2-((Methoxyimino)methyl)quinolin-8-yl)-4-(trifluoromethyl)benzenesulfonamide]	> 256 µg/mL	0.125 µg/mL (≈ 0.305 µM)	> 256 µg/mL	> 256 µg/mL	> 256 µg/mL	> 256 µg/mL
O=S(=O)(Nc1cccc2ccc(CNCCOCCO)nc12)c1ccc(C(F)(F)F)cc1 [ZDR129, N-(2-(((2-(2-Hydroxyethoxy)ethyl)amino)methyl)quinolin-8-yl)-4-(trifluoromethyl)benzenesulfonamide]	64 µg/mL (≈ 136 µM)	1 µg/mL (≈ 2.13 µM)	32 µg/mL (≈ 68.2 µM)	32 µg/mL (≈ 68.2 µM)	256 µg/mL (≈ 545 µM)	256 µg/mL (≈ 545 µM)
O=S(=O)(Nc1cccc2ccc(CNCCOCCOCCO)nc12)c1ccc(C(F)(F)F)cc1 [ZDR130, N-(2-(((2-(2-(2-Hydroxyethoxy)ethoxy)ethyl)amino)methyl)quinolin-8-yl)-4-(trifluoromethyl)benzenesulfonamide]	64 µg/mL (≈ 125 µM)	1 µg/mL (≈ 1.95 µM)	128 µg/mL (≈ 249 µM)	256 µg/mL (≈ 499 µM)	256 µg/mL (≈ 499 µM)	256 µg/mL (≈ 499 µM)
COCCOCCNCc1ccc2cccc(NS(=O)(=O)c3ccc(C(F)(F)F)cc3)c2n1 [ZDR131, N-(2-(((2-(2-Methoxyethoxy)ethyl)amino)methyl)quinolin-8-yl)-4-(trifluoromethyl)benzenesulfonamide]	64 µg/mL (≈ 132 µM)	1 µg/mL (≈ 2.07 µM)	64 µg/mL (≈ 132 µM)	128 µg/mL (≈ 265 µM)	256 µg/mL (≈ 529 µM)	256 µg/mL (≈ 529 µM)
COCCOCCOCCNCc1ccc2cccc(NS(=O)(=O)c3ccc(C(F)(F)F)cc3)c2n1 [ZDR132, N-(2-(5,8,11-Trioxa-2-azadodecyl)quinolin-8-yl)-4-(trifluoromethyl)benzenesulfonamide]	64 µg/mL (≈ 121 µM)	1 µg/mL (≈ 1.9 µM)	64 µg/mL (≈ 121 µM)	256 µg/mL (≈ 485 µM)	256 µg/mL (≈ 485 µM)	256 µg/mL (≈ 485 µM)
COCCNCc1ccc2cccc(NS(=O)(=O)c3ccc(C(F)(F)F)cc3)c2n1 [ZDR133, N-(2-(((2-Methoxyethyl)amino)methyl)quinolin-8-yl)-4-(trifluoromethyl)benzenesulfonamide]	64 µg/mL (≈ 146 µM)	0.25 µg/mL (≈ 0.569 µM)	64 µg/mL (≈ 146 µM)	256 µg/mL (≈ 583 µM)	> 256 µg/mL	256 µg/mL (≈ 583 µM)
CC(C)(C)NCc1ccc2cccc(NS(=O)(=O)c3ccc(C(F)(F)F)cc3)c2n1 [ZDR135, N-(2-((tert-Butylamino)methyl)quinolin-8-yl)-4-(trifluoromethyl)benzenesulfonamide]	128 µg/mL (≈ 293 µM)	0.25 µg/mL (≈ 0.571 µM)	32 µg/mL (≈ 73.1 µM)	64 µg/mL (≈ 146 µM)	> 256 µg/mL	> 256 µg/mL
CC(C)N(Cc1ccc2cccc(NS(=O)(=O)c3ccc(C(F)(F)F)cc3)c2n1)C(C)C [ZDR136, N-(2-((Diisopropylamino)methyl)quinolin-8-yl)-4-(trifluoromethyl)benzenesulfonamide]	> 256 µg/mL	8 µg/mL (≈ 17.2 µM)	> 256 µg/mL	> 256 µg/mL	> 256 µg/mL	> 256 µg/mL
O=S(=O)(Nc1cccc2ccc(/C=N/OCc3ccccc3)nc12)c1ccc(C(F)(F)F)cc1 [ZDR137, (E)-N-(2-(((Benzyloxy)imino)methyl)quinolin-8-yl)-4-(trifluoromethyl)benzenesulfonamide]	> 256 µg/mL	0.125 µg/mL (≈ 0.257 µM)	> 256 µg/mL	> 256 µg/mL	> 256 µg/mL	> 256 µg/mL
O=S(=O)(Nc1cccc2ccc(/C=N/NCc3ccccc3)nc12)c1ccc(C(F)(F)F)cc1 [ZDR138, (E)-N-(2-((2-Benzylhydrazineylidene)methyl)quinolin-8-yl)-4-(trifluoromethyl)benzenesulfonamide]	> 256 µg/mL	0.5 µg/mL (≈ 1.03 µM)	128 µg/mL (≈ 264 µM)	128 µg/mL (≈ 264 µM)	> 256 µg/mL	> 256 µg/mL
CC(C)(C)OC(=O)N=C(NCCNCc1ccc2cccc(NS(=O)(=O)c3ccc(C(F)(F)F)cc3)c2n1)NC(=O)OC(C)(C)C [ZDR139, N-(2-(((N,N′-Bis-Boc-2-Guanidinoethyl)amino)methyl)quinolin-8-yl)-4-(trifluoromethyl)benzenesulfonamide]	64 µg/mL (≈ 96 µM)	0.125 µg/mL (≈ 0.187 µM)	256 µg/mL (≈ 384 µM)	256 µg/mL (≈ 384 µM)	> 256 µg/mL	> 256 µg/mL
N/C(=N\[N+](=O)[O-])NCCNCc1ccc2cccc(NS(=O)(=O)c3ccc(C(F)(F)F)cc3)c2n1 [ZDR145, (E)-N-(2-(((2-(2-Nitroguanidino)ethyl)amino)methyl)quinolin-8-yl)-4-(trifluoromethyl)benzenesulfonamide]	> 256 µg/mL	> 256 µg/mL	64 µg/mL (≈ 125 µM)	128 µg/mL (≈ 250 µM)	128 µg/mL (≈ 250 µM)	256 µg/mL (≈ 501 µM)
CC(=O)NCCNCc1ccc2cccc(NS(=O)(=O)c3ccc(C(F)(F)F)cc3)c2n1 [ZDR148, N-(2-(((8-((4-(Trifluoromethyl)phenyl)sulfonamido)quinolin-2-yl)methyl)amino)ethyl)acetamide]	64 µg/mL (≈ 137 µM)	1 µg/mL (≈ 2.14 µM)	64 µg/mL (≈ 137 µM)	128 µg/mL (≈ 274 µM)	128 µg/mL (≈ 274 µM)	256 µg/mL (≈ 549 µM)
CN/N=C/c1ccc2cccc(NS(=O)(=O)c3ccc(C(F)(F)F)cc3)c2n1 [ZDR153, (E)-N-(2-((2-Methylhydrazineylidene)methyl)quinolin-8-yl)-4-(trifluoromethyl)benzenesulfonamide]	> 256 µg/mL	0.5 µg/mL (≈ 1.22 µM)	64 µg/mL (≈ 157 µM)	64 µg/mL (≈ 157 µM)	> 256 µg/mL	> 256 µg/mL
CN(C)Cc1ccc2cccc(NS(=O)(=O)c3ccc(S(N)(=O)=O)cc3)c2n1 [ZDR154, N-(2-((Dimethylamino)methyl)quinolin-8-yl)benzene-1,4-disulfonamide]	> 256 µg/mL	16 µg/mL (≈ 38 µM)	> 256 µg/mL	> 256 µg/mL	> 256 µg/mL	> 256 µg/mL
CN(C)Cc1ccc2cccc(NS(=O)(=O)c3cccc(S(N)(=O)=O)c3)c2n1 [ZDR155, N-(2-((Dimethylamino)methyl)quinolin-8-yl)benzene-1,3-disulfonamide]	> 256 µg/mL	> 256 µg/mL	> 256 µg/mL	> 256 µg/mL	> 256 µg/mL	> 256 µg/mL
CN(C)Cc1ccc2cccc(NS(=O)(=O)c3ccc(N)cc3)c2n1 [ZDR160, 4-Amino-N-(2-((dimethylamino)methyl)quinolin-8-yl)benzenesulfonamide]	256 µg/mL (≈ 718 µM)	> 256 µg/mL	> 256 µg/mL	> 256 µg/mL	> 256 µg/mL	> 256 µg/mL
CN(C)Cc1ccc2cccc(NS(=O)(=O)c3cccc(N)c3)c2n1 [ZDR162, 3-Amino-N-(2-((dimethylamino)methyl)quinolin-8-yl)benzenesulfonamide]	256 µg/mL (≈ 718 µM)	16 µg/mL (≈ 44.9 µM)	> 256 µg/mL	> 256 µg/mL	> 256 µg/mL	> 256 µg/mL
